Test results reported in patent US20230240991A1, “PROTEOPHOSPHOLIPOSOMES HAVING HDL-TYPE VESICLES” (priority 2019, published 2023).

System: intact washed human platelets
Experiment: [3H]PAF radioligand binding to intact washed human platelets after preincubation with plasma fractions (FIG. 1)
Procedure: Washed intact human thrombocytes are protected with plasma fractions from healthy volunteers (n=3, means, ±1 S.D.).
The thrombocytes are further preincubated with dialyzed, delipidated plasma proteins (0.36 mg/ml), with purified VLDL-fractions (0.9 mg/ml), with IDL (0.02 mg/ml), with HDL (0.5 mg/ml) or with delipidated HSA (0.25%).
Washed thrombocytes are tested in the presence of thioether-2-acyl-glycero-phosphatidylcholines (500 nM) compared to controls.

| Substance | total binding of [3H]PAF (500 nM Thio-GPC, washed thrombocytes, compared to controls) | total [3H]PAF binding (500 nM unlabeled PAF, n=3, control 22±3 fmol) [fmol per 10^8 cells/ml] |
| --- | --- | --- |
| thioether-2-acyl-glycero-phosphatidylcholines [Thio-GPC] | do not at all change | – |
| alkyl-acetyl-sn-glycero-phosphocholines [PAF] | – | 6±2 |
